From patent publication US10351519B2, “Sulfamate derivative compounds, processes for preparing them and their uses” (BIO-PHARM SOLUTIONS CO., LTD., priority 2016, dated 2019)

Assays:
Type in all cases: in vivo
ICR mice [1] = experiment: Writhing test (0.6% acetic acid); details: for ED50: Mus musculus, po
Protocol: To examine the pain relief effect of the sulfamate compounds, a writhing test was conducted, referring to Fischer, L. G. et al. (2008).
ICR mice (male, 24-28 g; Orient Bio, Korea) were habituated before test in test room for 1 hour. Animals were fasted 2 hr, before administration of compounds. Each of Compounds was orally administered at the three dose, 10 ul/g, by bodyweight (All compounds were dissolved in a vehicle of 30% (v/v) PEG 400 or 20% (v/v) Tween 80. The control group was treated with the vehicle without compounds.
0.25-2 hour after the administration of Compounds, 0.6% acetic acid at the dose of 10 ul/g, by bodyweight was injected into the mice. Animals were habituated in the cage for 5 min. 5 min after habituation, the number of writhes (abdominal constriction) was conted for 15 min, referring to Korzeniewska-Rybicka, I. et al. (1998) and compared with that of a control.

Sprague-Dawley rats = experiment: Antiallodynic activity on post operative-induced pain model; details: intraperitoneal injection; for ED50: Rattus norvegicus, ip, read-out: Post Operation ED50
Text: Male Sprague-Dawley rats (230-250 g, Orient Bio, Korea), were habituated at least 3 days before surgery and were allowed free access to food and water throughout the experimentation. Room temperature and humidity were maintained at 24±2 and 50±10%, respectively. The process of performing the post-operation model's surgery was adapted from Brennan et al (1996). At first, rats with allodynia (threshold valueless than 8 g) were excluded in Pre-von Frey Test. During the post-operation surgery, rats were anesthetized under gaseous anesthesia with 2% isoflurane. The rat was placed, lying face down on 37 degree warm plate to prevent against hypothermia. The ipsilateral plantar aspect (left side) of the hind paw was prepared in a sterile manner with a 10% povidone-iodine solution. A 1 cm longitudinal incision was made with a number 10 blade, through the skin and fascia of the ipsilateral plantar aspect of the foot, starting from 0.5 cm from the proximal edge of the heel and extending toward the toes. Rats' plantar muscles were elevated and incised longitudinally. After hemostasis with gentle pressure, the skin was opposed with 2 mattress sutures of 4-0 Dafilon.
After 24 hours of recovery, rats with a good response (threshold less than 4 g) in Pre-von Frey Test were selected. According to this response, we made three groups with each group having equal average responses: Group 1, post-operation and drug treated; Group 2, post-operation and vehicle treated; Group 3, no post-operation and vehicle treated. In this study, Group 3 was the sham control (positive) group. […]
For efficacy measure, the threshold value of group C was assigned 100% efficacy, and the percentage of the threshold values of group A compared to group C (for each different dose level) were calculated as the efficacies. Base on these efficacy values, ED50 was calculated using log fitting. […]
For pain threshold test, all animals were placed in a stainless steel meshed chamber and habituated for 30 min in the test cage. The tactile sensitivity of the ipsilateral hind paw was measured using the up-and-down method (Dixon, 1980) with seven von Frey monofilaments (0.4, 1, 2, 4, 6, 8, and 15 g) using 3 trials. The 50% paw withdrawal threshold for each paw was calculated using the following formula: [Xth] log=[vFr] log+ky, where [vFr] is the force of the last von Frey filament used, k=0.2249 which is the average interval (in log units) between the von Frey monofilaments, y which is a value that depends upon the pattern of withdrawal responses, and Xth which is the threshold value (Dixon, 1980). […]
The relative values compared to the sham (% control) were calculated and shown in Table 7, which show an antiallodynic effect of the compound of examples on Post operation-induced pain model in rats.

ICR mice [2] = experiment: Chemical induced seizure model (strychnine); details: intraperitoneal
Protocol: (§1) Male ICR mice (purchased from Orient Bio Inc. Korea) of body weight 19-27 g were used for these studies. The test materials were administered intraperitoneal route in a volume of 10 ul/g weight. Pharmacological effects of all the test materials were evaluated to compared test groups (n=6) with a control group (n=6). Control group was administrated vehicle, only. The peak time was determined by administration test material's random dose for 0.5, 1, 2 hour. The time that the most protect was defined peak time and ED50 was determined by other dose administration at peak time. Strychnine was dissolved in 0.9% saline and administered intraperitoneally (i.p.) at its CD97 (convulsive dose 97%) the dose of strychnine that produced clonic seizures in 97% in a volume of 10 ul/g body weight. The animals were then transferred to observation cages and observed continuously for 30 min. Clonic seizure was elicited in approximately 95% of control group. Protection was defined as complete absence of a clonic seizure over the 30-min observation period. The time that the most protect was defined peak time and ED50 was determined by other dose administration at peak time. The effective dose of compound necessary to protect against seizures to 50% of controls (i.e. ED50) was determined by log probit analysis using Excel 2007 (Microsoft).

ICR mice [3] = experiment: Chemical induced seizure model (BIC); details: for ED50: Mus musculus, ip
Protocol: as §1, with “body weight 19-26 g were” for “body weight 19-27 g were”, “dose for 0.5-4 hour. The” for “dose for 0.5, 1, 2 hour. The”, “peak time. BIC was dissolved” for “peak time. Strychnine was dissolved”, “and administered subcutaneously (s.c.) at its” for “and administered intraperitoneally (i.p.) at its”, “dose of BIC that produced” for “dose of strychnine that produced”, “in 97% into a loose fold of skin in the midline of the neck in a” for “in 97% in a”

Row | Compound | Writhing test(po) Peak Time (ICR mice [1]) | ED50 (ICR mice [1]) | ED50 (Sprague-Dawley rats) | Post Operation Peak Time (Sprague-Dawley rats) | ED50 (ICR mice [2]; Mus musculus, ip, read-out: Strychnine test ED50) | Strychnine test Peak Time (ICR mice [2]) | BIC(ip) Peak Time (ICR mice [3]) | ED50 (ICR mice [3])
1 | C[C@H](OS(N)(=O)=O)[C@@H](O)c1c(Cl)cccc1Cl [Example 7, (1S, 2S)-1-(2,6-dichlorophenyl)-1-hydroxypropan-2-yl sulfamate] | 0.5 h | 69.6 mg/kg | 5.8 mg/kg | 0.5 h | 75.8 mg/kg | 0.5 h | 1 h | 30.8 mg/kg
2 | C[C@@H](OS(N)(=O)=O)[C@H](O)c1c(Cl)cccc1Cl [Example 8, (1R, 2R)-1-(2,6-dichlorophenyl)-1-hydroxypropan-2-yl sulfamate] | 0.25 h | 50.6 mg/kg | 4.2 mg/kg | 0.5 h |  |  | 1 h | 73.9 mg/kg
